Measured values from US4950669A, “Methods and compositions for promoting growth of animals” (priority 1987, dated 1990).
Where a SMILES comes first, the peptide text is derived from it.

What was measured:
[1] = 44-day floor-pen study in chickens (Example XV); assay type: in vivo; conditions: feed 30 g/ton, 44 days
Source text: There were 60 chickens per replication, 3 replications per treatment. One group of controls was unmedicated, while a second control group received Bacitracin in the feed at 30 g/ton.

[2] = 21-day battery study in chickens (Example XIII); assay type: in vivo; conditions: feed 30 g/ton
Method: N-morpholinyl-β-benzoyl-propionamide was admixed with chicken feed at concentrations of 1.0 ppm, 7.5 ppm and 15 ppm. A 21-day battery study was conducted with the NMBP-containing feed. One group of controls was unmedicated, while a second control group received Bacitracin MD in its feed at 30 g/ton. The birds were fed ad libitum and weighed on days 7, 14 and 21. There were 10 birds per replication, 4 replications in controls and 2 replications per drug treatment.

[3] = 44-day floor pen study in chickens (Example XIV); assay type: in vivo; conditions: feed 30 g/ton
Method: A 44-day floor pen study was conducted in which n-morpholinyl-β-benzoyl-propionamide was administered in chicken feed at concentrations of 1 ppm, 2.5 ppm, 5 ppm, 10 ppm, 20 ppm, 40 ppm and 60 ppm. One group of controls received no medication in its feed, while a second control group received Bacitracin MD in its feed at 30 g/ton. Birds were fed ad libitum. There were 5 replications per treatment, 50 birds per replication. Birds were weighed to determine weight gain and feed-to-gain ration after 35 days and 44 days.

[4] = 28-day chicken growth study, feed or i.m. injection (Example XII); assay type: in vivo, chickens; conditions: feed 30 g/ton
Method: Portions of N-morpholinyl-β-benzoyl-propionamide were admixed with chicken feed at 1 mg/kg and a 2 mg/kg, respectively. Another portion was formulated into an injectable formulation at a concentration of 2% in polyethylene glycol. The N-morpholinyl-β-benzoylpropionamide was then administered to chickens, either by i.m. injection or in feed, over 28-day period. One group of controls received no medication, while another group of controls received Bacitracin MD in its feed at 30 g/ton. Those chickens receiving intramuscular injections were injected once a week with a dosage of either 1 mg/kg or 2 mg/kg, based on body weight. Birds were weighed on days 0, 14 and 28.

## CC[C@H](C)[C@H](N)C1=N[C@H](C(=O)N[C@@H](CC(C)C)C(=O)N[C@H](CCC(=O)O)C(=O)N[C@H](C(=O)N[C@H]2CCCCNC(=O)[C@H](CC(N)=O)NC(=O)[C@@H](CC(=O)O)NC(=O)[C@H](Cc3cnc[nH]3)NC(=O)[C@@H](Cc3ccccc3)NC(=O)[C@H]([C@@H](C)CC)NC(=O)[C@@H](CCCN)NC2=O)[C@@H](C)CC)CS1 [Bacitracin MD, reference compound] (HELM PEPTIDE1{[CC[C@H](C)[C@H](N)C1=N[C@H](C(=O)[*:2])CS1].L.[dE].I.K.[NCCC[C@@H](N[*:1])C(=O)[*:2]].I.[dF].H.[dD].N}$PEPTIDE1,PEPTIDE1,5:R3-11:R2$$$V2.0)
[1]
  Average Live Bird Weight: 2.11 kg
  Feed Conversion: 1.75
[2]; Day 7
  F/G: 1.37
  Weight Gain: 337 g
[2]; Day 14
  F/G: 1.47
  Weight Gain: 707 g
[2]; Day 21
  F/G: 1.58
  Weight Gain: 1155 g
[3]; Day 35
  F/G: 1.59
  Weight Gain: 1376 g
[3]; Day 44
  F/G: 1.72
  Weight Gain: 1909 g
[3]; house cleaned and disinfected just prior to study
  growth results in words: lack of positive results
[4]; Day 0 (baseline)
  Average Weight: 98.6 g
[4]; Day 14
  Average Weight: 475.6 g
  Feed Conversion: 1.37
  Weight Gain: 377.0 g
[4]; Day 28
  Average Weight: 1026.9 g
  Feed Conversion: 1.58
  Weight Gain: 928.3 g
